Experimental data from ChEMBL document CHEMBL1201862, “PubChem BioAssay data set” (2004).
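Compound exposure: 48 hours, 5 concentrations, 96-well plates. GI50: concentration for 50% inhibition of growth.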 Active and inactive are the calls of the source. No stated cut-off is given here; in the data, active = GI50 up to about 1.1 µM and inactive = higher.

Tests used:
Assay in all cases: growth of human tumour cells (NCI), 48 h
[1] = test system: SF-539
[2] = test system: MDA-MB-231
[3] = test system: HCT-15
[4] = test system: U-251
[5] = test system: SF-268
[6] = test system: SK-OV-3
[7] = test system: MDA-MB-435
[8] = test system: RXF 393
[9] = test system: Hs-578T
[10] = test system: MOLT-4
[11] = test system: SK-MEL-2
[12] = test system: OVCAR-3
[13] = test system: Malme-3M
[14] = test system: ACHN
[15] = test system: 786-0
[16] = test system: K562
[17] = test system: UACC-62
[18] = test system: HOP-62
[19] = test system: SNB-75
[20] = test system: HL-60
[21] = test system: OVCAR-8
[22] = test system: MDA-N
[23] = test system: CAKI-1
[24] = test system: SK-MEL-5
[25] = test system: A498
[26] = test system: OVCAR-5
[27] = test system: NCI-H460
[28] = test system: HCC 2998
[29] = test system: HT-29
[30] = test system: PC-3
[31] = test system: SK-MEL-28
[32] = test system: NCI-H23
[33] = test system: UO-31
[34] = test system: SW-620
[35] = test system: OVCAR-4
[36] = test system: SNB-19
[37] = test system: SF-295
[38] = test system: IGROV-1
[39] = test system: CCRF-CEM
[40] = test system: TK-10
[41] = test system: SN12C
[42] = test system: UACC-257
[43] = test system: A549
[44] = test system: NCI-H522
[45] = test system: DU-145
[46] = test system: BT-549
[47] = test system: NCI-H226
[48] = test system: EKVX
[49] = test system: SR
[50] = test system: HOP-92
[51] = test system: KM12
[52] = test system: HCT-116
[53] = test system: M14
[54] = test system: T47D
[55] = test system: COLO 205
[56] = test system: NCI/ADR-RES
[57] = test system: MCF7
[58] = test system: RPMI-8226
[59] = test system: LOX IMVI

## CCCN1C(=O)CCC2=C1CCc1c2ccc(Cl)c1Cl
[1]
  GI50: 25.9 µM (inactive)
[2]
  GI50: 16.8 µM (inactive)
[3]
  GI50: 50.6 µM
[4]
  GI50: 22.9 µM (inactive)
[5]
  GI50: 27 µM (inactive)
[6]
  GI50: 24.3 µM (inactive)
[7]
  GI50: 57.9 µM (inactive)
[8]
  GI50: 17.9 µM (inactive)
[9]
  GI50: 0.0472 µM (active)
[10]
  GI50: 26.2 µM (inactive)
[11]
  GI50: 13.5 µM (inactive)
[12]
  GI50: 23 µM (inactive)
[13]
  GI50: 61.1 µM (inactive)
[14]
  GI50: 24.3 µM (inactive)
[15]
  GI50: 31.9 µM (inactive)
[16]
  GI50: 35 µM (inactive)
[17]
  GI50: 0.492 µM (active)
[18]
  GI50: 38.5 µM (inactive)
[19]
  GI50: 15.2 µM (inactive)
[20]
  GI50: 15.8 µM (inactive)
[21]
  GI50: 23.2 µM (inactive)
[22]
  GI50: 46 µM (inactive)
[23]
  GI50: 31.6 µM (inactive)
[24]
  GI50: 15.4 µM (inactive)
[25]
  GI50: 13 µM (inactive)
[26]
  GI50: 8.41 µM (inactive)
[27]
  GI50: 43.6 µM (inactive)
[28]
  GI50: 21.3 µM (inactive)
[29]
  GI50: 34.8 µM (inactive)
[30]
  GI50: 27.3 µM (inactive)
[31]
  GI50: 92 µM (inactive)
[32]
  GI50: 29.4 µM (inactive)
[33]
  GI50: 53 µM (inactive)
[34]
  GI50: 48.4 µM (inactive)
[35]
  GI50: 26.2 µM (inactive)
[36]
  GI50: 26.8 µM (inactive)
[37]
  GI50: 27 µM (inactive)
[38]
  GI50: 30.8 µM (inactive)
[39]
  GI50: 39.9 µM (inactive)
[40]
  GI50: 11.9 µM (inactive)
[41]
  GI50: 28.2 µM (inactive)
[42]
  GI50: 39.9 µM (inactive)
[43]
  GI50: 27.2 µM (inactive)
[44]
  GI50: 23.3 µM (inactive)
[45]
  GI50: 5.19 µM (inactive)
[46]
  GI50: 64.4 µM (inactive)
[47]
  GI50: 60.5 µM (inactive)
[48]
  GI50: 0.0305 µM (active)
[49]
  GI50: 31.8 µM (inactive)
[50]
  GI50: 21.8 µM (inactive)
[51]
  GI50: 38 µM (inactive)
[52]
  GI50: 27.7 µM (inactive)
[53]
  GI50: 31.9 µM (inactive)
[54]
  GI50: 36.7 µM (inactive)
[55]
  GI50: 51.9 µM (inactive)
[56]
  GI50: 33.8 µM (inactive)
[57]
  GI50: 42.1 µM (inactive)
[58]
  GI50: 28.8 µM (inactive)
[59]
  GI50: 25.6 µM (inactive)

## C[n+]1c(-c2ccc(/C=N/NC(=O)c3ccc(C(=O)N/N=C/c4ccc(-c5cn6ccccc6[n+]5C)cc4)cc3)cc2)cn2ccccc21
[1]
  GI50: > 84.9 µM (inactive)
[2]
  GI50: > 74.3 µM (inactive)
[3]
  GI50: > 100 µM
[4]
  GI50: > 100 µM (inactive)
[5]
  GI50: > 100 µM (inactive)
[6]
  GI50: > 100 µM (inactive)
[7]
  GI50: > 75.7 µM (inactive)
[8]
  GI50: > 61.9 µM (inactive)
[9]
  GI50: > 100 µM (inactive)
[10]
  GI50: > 100 µM (inactive)
[11]
  GI50: > 100 µM (inactive)
[12]
  GI50: > 100 µM (inactive)
[13]
  GI50: > 54.6 µM (inactive)
[14]
  GI50: > 73.3 µM (inactive)
[15]
  GI50: 13.9 µM (inactive)
[16]
  GI50: > 100 µM (inactive)
[17]
  GI50: > 81.8 µM (inactive)
[18]
  GI50: > 100 µM (inactive)
[19]
  GI50: > 100 µM (inactive)
[20]
  GI50: > 100 µM (inactive)
[21]
  GI50: > 100 µM (inactive)
[22]
  GI50: > 70 µM (inactive)
[23]
  GI50: > 72.9 µM (inactive)
[24]
  GI50: > 67.9 µM (inactive)
[25]
  GI50: 29.2 µM (inactive)
[26]
  GI50: > 100 µM (inactive)
[27]
  GI50: > 100 µM (inactive)
[28]
  GI50: > 100 µM (inactive)
[29]
  GI50: > 100 µM (inactive)
[30]
  GI50: > 100 µM (inactive)
[31]
  GI50: > 100 µM (inactive)
[32]
  GI50: > 100 µM (inactive)
[33]
  GI50: > 59.8 µM (inactive)
[34]
  GI50: > 100 µM (inactive)
[35]
  GI50: > 100 µM (inactive)
[36]
  GI50: > 100 µM (inactive)
[37]
  GI50: > 100 µM (inactive)
[38]
  GI50: > 100 µM (inactive)
[39]
  GI50: > 34.3 µM (inactive)
[40]
  GI50: > 83.4 µM (inactive)
[41]
  GI50: > 100 µM (inactive)
[42]
  GI50: > 63.7 µM (inactive)
[43]
  GI50: > 100 µM (inactive)
[44]
  GI50: > 100 µM (inactive)
[45]
  GI50: > 100 µM (inactive)
[46]
  GI50: > 100 µM (inactive)
[47]
  GI50: > 100 µM (inactive)
[48]
  GI50: > 100 µM (inactive)
[49]
  GI50: > 100 µM (inactive)
[50]
  GI50: > 100 µM (inactive)
[51]
  GI50: > 100 µM (inactive)
[52]
  GI50: > 100 µM (inactive)
[53]
  GI50: 98.6 µM (inactive)
[54]
  GI50: > 100 µM (inactive)
[55]
  GI50: > 100 µM (inactive)
[56]
  GI50: > 100 µM (inactive)
[57]
  GI50: > 100 µM (inactive)
[58]
  GI50: > 100 µM (inactive)
[59]
  GI50: > 100 µM (inactive)

## N#Cc1c(-c2ccccc2)c2c([nH]c1=O)-c1cc([N+](=O)[O-])ccc1CCC2
[1]
  GI50: 27.7 µM (inactive)
[2]
  GI50: 51.8 µM (inactive)
[3]
  GI50: 20.9 µM
[4]
  GI50: 33.3 µM (inactive)
[5]
  GI50: 26.6 µM (inactive)
[6]
  GI50: 36.3 µM (inactive)
[7]
  GI50: 32.3 µM (inactive)
[8]
  GI50: 12.1 µM (inactive)
[9]
  GI50: 68.2 µM (inactive)
[10]
  GI50: 25 µM (inactive)
[11]
  GI50: 25.2 µM (inactive)
[12]
  GI50: 21.2 µM (inactive)
[13]
  GI50: 51.8 µM (inactive)
[14]
  GI50: 24.8 µM (inactive)
[15]
  GI50: 43.2 µM (inactive)
[16]
  GI50: 34.1 µM (inactive)
[17]
  GI50: 17.5 µM (inactive)
[18]
  GI50: 22.7 µM (inactive)
[19]
  GI50: < 0.01 µM (active)
[20]
  GI50: 35.2 µM (inactive)
[21]
  GI50: 34.3 µM (inactive)
[22]
  GI50: 36.5 µM (inactive)
[23]
  GI50: 41.3 µM (inactive)
[24]
  GI50: 27.9 µM (inactive)
[25]
  GI50: 19 µM (inactive)
[26]
  GI50: 83.4 µM (inactive)
[27]
  GI50: 30.4 µM (inactive)
[28]
  GI50: 20.7 µM (inactive)
[29]
  GI50: 34.8 µM (inactive)
[30]
  GI50: 39.7 µM (inactive)
[31]
  GI50: 29.8 µM (inactive)
[32]
  GI50: 25.2 µM (inactive)
[33]
  GI50: 41.4 µM (inactive)
[34]
  GI50: 36.7 µM (inactive)
[35]
  GI50: 34 µM (inactive)
[36]
  GI50: 36.7 µM (inactive)
[37]
  GI50: 18.9 µM (inactive)
[38]
  GI50: 29.9 µM (inactive)
[39]
  GI50: 37.6 µM (inactive)
[40]
  GI50: 44.4 µM (inactive)
[41]
  GI50: 44.1 µM (inactive)
[42]
  GI50: 31.1 µM (inactive)
[43]
  GI50: 30.3 µM (inactive)
[44]
  GI50: 27.5 µM (inactive)
[45]
  GI50: 25.5 µM (inactive)
[46]
  GI50: 17.4 µM (inactive)
[47]
  GI50: 27.1 µM (inactive)
[48]
  GI50: 26.7 µM (inactive)
[49]
  GI50: 28.8 µM (inactive)
[50]
  GI50: 16.4 µM (inactive)
[51]
  GI50: 32.9 µM (inactive)
[52]
  GI50: 30.3 µM (inactive)
[53]
  GI50: 33.1 µM (inactive)
[54]
  GI50: 19.3 µM (inactive)
[55]
  GI50: 26.9 µM (inactive)
[56]
  GI50: 22 µM (inactive)
[57]
  GI50: 27.7 µM (inactive)
[58]
  GI50: 32.9 µM (inactive)
[59]
  GI50: 25.5 µM (inactive)
